Structures can show the parent of a compound that is named as a salt. Where two headings read alike, the source gives them in different places. Blank lines part the entries; values can stand above or below the molecule they belong to.
Columns and labels:
[1] = conventional tablet formulation; cited from earlier work
[2] = Bioavailability of phenylephrine: plasma levels after delivery to the colon via Enterion capsules or oral Sudafed PE; assay type: in vivo, human; settings: for t1/2, unconjugated Phenylephrine / Tmax, unconjugated Phenylephrine: hydrochloride; for Tlag, unconjugated Phenylephrine / Tmax, unconjugated Phenylephrine: median (range); for AUC(0-t) / Cmax / bioavailability / concentration at 0.083 h / concentration at […] / concentration at 0.5 h / concentration at 1 h / concentration at 2 h / concentration at 3 h / concentration at 4 h / concentration at 6 h / concentration at 8 h / concentration at 12 h / concentration at 14 h / concentration at 16 h / concentration at 24 h: both sexes, human, plasma, oral; for Cmax: read-out: Cmax, unconjugated Phenylephrine; for bioavailability: read-out: Frel last (bioavailability relative to immediate release oral formulation), unconjugated Phenylephrine; for concentration at 0.083 h: 0.083 h post-dose; for concentration at 0.083 h / concentration at […] / concentration at 0.5 h / concentration at 1 h / concentration at 2 h / concentration at 3 h / concentration at 4 h / concentration at 6 h / concentration at 8 h / concentration at 12 h / concentration at 14 h / concentration at 16 h / concentration at 24 h: read-out: Mean plasma concentration (Unconjugated); for concentration at 0.5 h: 0.5 h post-dose; for concentration at 1 h: 1 h post-dose; for concentration at 2 h: 2 h post-dose; for concentration at 3 h: 3 h post-dose; for concentration at 4 h: 4 h post-dose; for concentration at 6 h: 6 h post-dose; for concentration at 8 h: 8 h post-dose; for concentration at 12 h: 12 h post-dose; for concentration at 14 h: 14 h post-dose; for concentration at 16 h: 16 h post-dose; for concentration at 24 h: 24 h post-dose
Procedure: The following study was conducted to examine the phenylephrine absorption behavior in GI tract. […] Enterion™ capsules (Pharmaceutical Profiles Ltd, UK) allow for deployment of drug delivery at a desired location within the GI tract. To determine the capsules had reached a desired location, preparations of regimens A and C were administered orally with 210 mL water followed by a radiolabeled drink containing 4 MBq 99m-Tc-diethylenetriaminepetaacetic acid (DTPA) in 30 mL water so that the location of the ingested materials could be visualized by scintigraphic imaging. […] The blood samples were collected into a tube containing lithium heparin, centrifuged within 30 minutes at 1500 g for 15 minutes at 4 degrees Celsius. The plasma was analyzed for phenylephrine in its conjugated and unconjugated forms. The amount of conjugated phenylephrine was calculated by subtracting the amount of unconjugated phenylephrine assayed from the amount of total phenylephrine assayed.
The relative bioavailability, shown as Frel last in the table, indicates the bioavailability of phenylephrine administered to the colon relative to that administered as an immediate release oral formulation.

[3] = oral dosage forms; cited from earlier work
[4] = 10 mg PE-colon (Regimen A) n = 8
[5] = 30 mg PE-colon (Regimen C) n = 6
[6] = 10 mg PE-colon (Regimen A) n = 8, mean ± SD
[7] = 10 mg to colon via Enterion capsule (Regimen A)
[8] = 30 mg PE-colon (Regimen C) n = 6, mean ± SD
[9] = 30 mg to colon via Enterion capsule (Regimen C)

SMILES: CCOC(=O)N1CCC(=C2c3ccc(Cl)cc3CCc3cccnc32)CC1 [loratadine]
- time the antihistaminic effect lasts [1]: > 24 h

- t1/2, unconjugated Phenylephrine ([2]; 10 mg PE-colon (Regimen A) n = 2, mean): 8.19 (n = 2) hours
- Tlag, unconjugated Phenylephrine [2, 4]: 0.0800 (0–0.750)a hours
- Tmax, unconjugated Phenylephrine [2, 4]: 1.50 (0.250–3.00)a hours
- active unconjugated form as share of total phenylephrine concentration over time in plasma (AUC0-∞ unconjugated / AUC0-∞ total) ([2]; 10 mg phenylephrine in immediate release form): ≤ 0.5%
- active unconjugated form as share of total phenylephrine concentration over time in plasma (AUC0-∞ unconjugated / AUC0-∞ total) ([2]; 10 mg phenylephrine released in the colon): approximately 2.2%
- t1/2, unconjugated Phenylephrine ([2]; 30 mg PE-colon (Regimen C) n = 3, mean ± SD): 10.8 ± 7.99 (n = 3) hours
- Tlag, unconjugated Phenylephrine [2, 5]: 0 (0–0.750)a hours
- Tmax, unconjugated Phenylephrine [2, 5]: 2.25 (0.750–6.03)a hours
- active unconjugated form as share of total phenylephrine concentration over time in plasma (AUC0-∞ unconjugated / AUC0-∞ total) ([2]; 30 mg phenylephrine released in the colon): Approximately 5%
- increase of bioavailability versus oral immediate release form ([2]; absorption from the lower intestinal tract): by a factor of three
- AUC(0-t) ([2]; 10 mg, 10 mg PE-colon (Regimen A) n = 2, mean, read-out: AUC0–24, unconjugated Phenylephrine (Table 13)): 2.87 ng·h/mL
- AUC(0-t) ([2]; 10 mg, 10 mg phenylephrine hydrochloride delivered to the colon, read-out: mean AUC0-24 value of unconjugated phenylephrine): 1.58 ± 0.915 ng·h/mL
- AUC(0-t) ([2]; 30 mg, 30 mg PE-colon (Regimen C) n = 3, mean ± SD, read-out: AUC0–24, unconjugated Phenylephrine (Table 13)): 8.94 ± 5.16 ng·h/mL
- AUC(0-t) ([2]; 30 mg, 30 mg phenylephrine hydrochloride delivered to the colon, read-out: mean AUC0-24 value of unconjugated phenylephrine): 5.17 ± 1.56 ng·h/mL
- Cmax [2, 6]: 0.4 ± 0.454 ng/mL
- bioavailability [2, 6]: 332 ± 232%
- concentration at 0.083 h [2, 7]: 0.0586 ng/mL
- concentration at […] ([2]; 10 mg to colon via Enterion capsule (Regimen A), 0.25 h post-dose): 0.304 ng/mL
- concentration at 0.5 h [2, 7]: 0.145 ng/mL
- concentration at […] ([2]; 10 mg to colon via Enterion capsule (Regimen A), 0.75 h post-dose): 0.125 ng/mL
- concentration at 1 h [2, 7]: 0.135 ng/mL
- concentration at […] ([2]; 10 mg to colon via Enterion capsule (Regimen A), 1.5 h post-dose): 0.16 ng/mL
- concentration at 2 h [2, 7]: 0.187 ng/mL
- concentration at […] ([2]; 10 mg to colon via Enterion capsule (Regimen A), 2.5 h post-dose): 0.182 ng/mL
- concentration at 3 h [2, 7]: 0.165 ng/mL
- concentration at 4 h [2, 7]: 0.15 ng/mL
- concentration at 6 h [2, 7]: 0.111 ng/mL
- concentration at 8 h [2, 7]: 0.068 ng/mL
- concentration at 12 h [2, 7]: 0.058 ng/mL
- concentration at 14 h [2, 7]: 0.059 ng/mL
- concentration at 16 h [2, 7]: 0.064 ng/mL
- concentration at 24 h [2, 7]: 0.059 ng/mL
- Cmax [2, 8]: 0.468 ± 0.174 ng/mL
- bioavailability [2, 8]: 333 ± 140%
- concentration at 0.083 h [2, 9]: 0.0458 ng/mL
- concentration at […] ([2]; 30 mg to colon via Enterion capsule (Regimen C), 0.25 h post-dose): 0.0784 ng/mL
- concentration at 0.5 h [2, 9]: 0.229 ng/mL
- concentration at […] ([2]; 30 mg to colon via Enterion capsule (Regimen C), 0.75 h post-dose): 0.242 ng/mL
- concentration at 1 h [2, 9]: 0.253 ng/mL
- concentration at […] ([2]; 30 mg to colon via Enterion capsule (Regimen C), 1.5 h post-dose): 0.348 ng/mL
- concentration at 2 h [2, 9]: 0.354 ng/mL
- concentration at […] ([2]; 30 mg to colon via Enterion capsule (Regimen C), 2.5 h post-dose): 0.352 ng/mL
- concentration at 3 h [2, 9]: 0.324 ng/mL
- concentration at 4 h [2, 9]: 0.309 ng/mL
- concentration at 6 h [2, 9]: 0.311 ng/mL
- concentration at 8 h [2, 9]: 0.269 ng/mL
- concentration at 12 h [2, 9]: 0.195 ng/mL
- concentration at 14 h [2, 9]: 0.204 ng/mL
- concentration at 16 h [2, 9]: 0.196 ng/mL
- concentration at 24 h [2, 9]: 0.157 ng/mL
- maximal plasma concentration of unconjugated phenylephrine as percentage of maximal plasma concentration of total phenylephrine ([2]; immediate release formulation by oral administration): less than 0.7%
SMILES: CNC[C@H](O)c1cccc(O)c1 [Phenylephrine hydrochloride, phenylephrine hydrochloride]
- half-life of active phenylephrine in plasma [3]: approximately 2 hours
